In patent publication US11319344B2, “Non-membrane disruptive P53 activating stapled peptides” (AGENCY FOR SCIENCE, TECHNOLOGY AND RESEARCH, priority 2015, dated 2022):
Where two headings read alike, the source gives them in different places. *1 amine or outer side, *2 acyl side, *3 side chain or, on linkers, in order; H or OH if unused. Where a SMILES comes first, the peptide text is derived from it. Bridges are numbered along the chain shown (N, C = ends). [ ]: non-standard residue; d: D form. ξ: configuration not given here. ξαMeNle(6-ylidene) = CC(CCCC=[*:3])(N[*:1])C(=O)[*:2]; X1 = CC(CCCCCCC=[*:3])(N[*:1])C(=O)[*:2]; R8 = C=CCCCCCC[C@@](C)(N)C(=O)O; R5 = C=CCCC[C@@](C)(N)C(=O)O; S5 = C=CCCC[C@](C)(N)C(=O)O; Ahx = NCCCCCC(=O)O

How the values were obtained:
[1] = test system: p53 transcriptional activity in T22 cells; test: T22 p53 β-galactosidase based reporter assay; type: cell-based, murine; conditions: for IC50: T22 p53 reporter assay, 18 h; for ability to induce p53 activity in T22 reporter assay: with and without serum
Method: The YS-01/04 peptides were screened in a murine T22-derived p53 reporter assay, either with or without fetal calf serum, to assess their ability to induce p53 transcriptional activity in intact cells (Table 1 and FIG. 3).
(§1) T22 cells, which were stably transfected with a p53 responsive β-galactosidase reporter, were seeded into 96-well plate at a cell density of 8000 cells per well. Cells were also maintained in Dulbecco's Minimal Eagle Medium (DMEM) with 10% fetal bovine serum (FBS) and penicillin/streptomycin. […] Measurements were carried out using a Safire II multiplate reader. Experiments were carried out independently twice.

[2] = test system: p53 transcriptional activity in ARN8 cells; test: ARN8 β-galactosidase based p53 reporter assay; type: cell-based, Human; conditions: 18 h; for p53 activation (β-galactosidase activity) in ARN8 cells: serum free
Method: ARN8 cells contain the same β-galactosidase gene under the control of a p53 promoter that is stably transfected into T22 cells. […] The YS-07 and YS-09 titrations were again repeated and the lactate dehydrogenase leakage from ARN8 cells measured instead (FIGS. 8c and 8d).
as §1, with “ARN8” for “T22”

[3] = target: N-terminal domain of Mdm2 (1-125) (Homo sapiens, UniProt Q00987); test: Competitive fluorescence anisotropy titration (apparent Kd)
Method: In this assay, a N-terminally FAM labelled peptide of the sequence [sequence]
The cells expressing the Mdm2 GST fusion construct were grown in LB medium at 37° C. to an OD600 of ˜0.6 and induction was carried out with 1 mM isopropyl β-D-1-thiogalactopyranoside (IPTG) at room temperature. Cells were harvested by centrifugation and the cell pellets were resuspended in 50 mM Tris pH 8.0, 10% sucrose and then sonicated. The sonicated sample was centrifuged for 60 minutes at 17,000 g at 4° C. […] The column was then further washed by 6 volumes of wash buffer. Mdm2 were then purified from the column by cleavage with PreScission protease. 10 units of PreScission protease, in one column volume of PBS with 1 mM DTT buffer, were injected onto the column. The cleavage reaction was allowed to proceed overnight at 4° C. The cleaved protein was then eluted of the column with wash buffer. Protein fractions were analysed with SDS-PAGE and concentrated using a Centricon (3.5 kDa molecular weight cut-off (MWCO)) concentrator. The Mdm2 protein sample was then dialyzed into a buffer solution containing 20 mM Bis-Tris, pH 6.5, 0.05M NaCl with 1 mM DTT and loaded onto a monoS column pre-equilibrated in buffer A (20 mM Bis-Tris, pH 6.5, 1 mM DTT). The column was then washed in 6 column volumes of buffer A and bound protein was eluted with a linear gradient of 1M NaCl over 25 column volumes. Protein fractions were analysed with sodium dodecyl sulfate-polyacrylamide gel electrophoresis (SDS-PAGE) and concentrated using a Centricon (3.5 kDa molecular weight cut-off (MWCO)) concentrator.
Apparent dissociation constant (Kd) values were determined for a variety of molecules via competitive fluorescence anisotropy experiments. […] The competing molecules were then titrated against the complex of the FAM labelled peptide and protein. Apparent dissociation constant (Kd) values were determined by fitting the experimental data to the equations shown below:
[L]st and [L]t denote labelled ligand and total unlabelled ligand input concentrations, respectively. Kd2 is the dissociation constant of the interaction between the unlabelled ligand and the protein. In all competitive types of experiments, it is assumed that [P]t>[L]st, otherwise considerable amounts of free labelled ligand would always be present and would interfere with measurements. […] The FAM-labelled peptide was dissolved in dimethyl sulfoxide (DMSO) at 1 mM and diluted into experimental buffer. Readings were carried out with a Envision Multilabel Reader. […] All titrations were carried out in triplicate. Curve-fitting was carried out using Prism 4.0 (GraphPad). […]

[4] = Circular dichroism spectroscopy (helicity in solution); type: physicochemical; conditions: peptide unbound in solution
[5] = absence of serum, read-out: T22 IC50 (0% μM)
[6] = presence of 10% fetal calf serum, read-out: T22 Ic50 (10% μM)

Chain of N-terminal domain of Mdm2 (1-125) (Q00987 1-125): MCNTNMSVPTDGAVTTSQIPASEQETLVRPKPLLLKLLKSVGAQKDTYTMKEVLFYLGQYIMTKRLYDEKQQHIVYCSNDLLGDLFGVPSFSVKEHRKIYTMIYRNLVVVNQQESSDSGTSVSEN

| SMILES | IC50 [1, 5] | IC50 [1, 6] | p53 activation in ARN8 cells ([2]; 10% serum) | p53 activation (β-galactosidase activity) in ARN8 cells [2] | ability to induce p53 activity in T22 reporter assay [1] | Kd stronger in comparison to sMTIDE-02 ([3]; ratio to sMTIDE-02 Kd) | Kd weaker than the i,i+4 analogue peptides (YS-01 and YS-02) ([3]; ratio to YS-01/YS-02 Kd) | helicity in solution (CD spectra) [4] |
| --- | --- | --- | --- | --- | --- | --- | --- | --- |
| CC(=O)N[C@@H](CCCNC(=N)N)C(=O)N[C@@H](CCCNC(=N)N)C(=O)N[C@@H](CCCNC(=N)N)C(=O)NCCCCCC(=O)N[C@H](C(=O)N[C@@H](CO)C(=O)N[C@@H](Cc1ccccc1)C(=O)NC1(C)CCCCCCC=CCCCC(C)(C(=O)N[C@@H](CCC(=O)O)C(=O)N[C@@H](CC(N)=O)C(=O)N[C@@H](Cc2ccccc2)C(N)=O)NC(=O)[C@H](CC(C)C)NC(=O)[C@H](CC(C)C)NC(=O)[C@H](C)NC(=O)[C@H](Cc2c[nH]c3ccccc23)NC(=O)[C@H](Cc2ccc(O)cc2)NC(=O)[C@H](CCC(=O)O)NC1=O)[C@@H](C)O (stereo partly drawn) [YS-09, Ac-RRR-Ahx-^17TSFX8EYWALLS5ENF^30-NH2] (Ac-RRR[Ahx]TSF[X1]EYWALL[ξαMeNle(6-ylidene)]ENF-NH2; staple 8-15) | 1.98 µM | 11.6 µM | slightly more activity than YS-07 | sharp burst of p53 transcriptional activity at 3.125 μM followed by a sharp decline at higher concentrations |  |  |  |  |
| CC(=O)N[C@@H](CCCCN)C(=O)N[C@@H](CCCCN)C(=O)NCCCCCC(=O)N[C@H](C(=O)N[C@@H](CO)C(=O)N[C@@H](Cc1ccccc1)C(=O)N[C@]1(C)CCCCCCC=CCCC[C@@](C)(C(=O)N[C@@H](CCC(=O)O)C(=O)N[C@@H](CC(N)=O)C(=O)N[C@@H](Cc2ccc(O)cc2)C(N)=O)NC(=O)[C@H](CC(C)C)NC(=O)[C@H](CC(C)C)NC(=O)[C@H](C)NC(=O)[C@H](Cc2c[nH]c3ccccc23)NC(=O)[C@H](Cc2ccc(O)cc2)NC(=O)[C@H](CCC(=O)O)NC1=O)[C@@H](C)O [YS-08, Ac-KK-Ahx-^17TSFX8EYWALLS5ENY^30-NH2] (Ac-KK[Ahx]TSF[R8]EYWALL[S5]ENY-NH2; staple 7-14) | 7.29 µM | 23.4 µM |  |  | least potent amongst the four peptides |  |  |  |
| CC(=O)N[C@H](C(=O)N[C@@H](CO)C(=O)N[C@@H](Cc1ccccc1)C(=O)N[C@]1(C)CCCC=CCCC[C@](C)(C(=O)N[C@@H](CC(C)C)C(=O)N[C@@H](CC(C)C)C(=O)N2CCC[C@H]2C(=O)N[C@@H](CCC(=O)O)C(=O)N[C@@H](CC(N)=O)C(=O)N[C@@H](Cc2ccccc2)C(N)=O)NC(=O)[C@H](Cc2c[nH]c3ccccc23)NC(=O)[C@H](Cc2ccc(O)cc2)NC(=O)[C@H](CCC(=O)O)NC1=O)[C@@H](C)O [YS-01, Ac-^17TSFX5EYWX5LLPENF^30-NH2] (Ac-TSF[R5]EYW[R5]LLPENF-NH2; staple 4-8) |  |  |  |  |  | approximately 3 fold |  |  |
| CC(=O)N[C@@H](CCCNC(=N)N)C(=O)N[C@@H](CCCNC(=N)N)C(=O)N[C@@H](CCCNC(=N)N)C(=O)NCCCCCC(=O)N[C@H](C(=O)N[C@@H](CO)C(=O)N[C@@H](Cc1ccccc1)C(=O)NC1(C)CCCCCCC=CCCCC(C)(C(=O)N[C@@H](CCC(=O)O)C(=O)N[C@@H](CC(N)=O)C(=O)N[C@@H](Cc2ccc(O)cc2)C(N)=O)NC(=O)[C@H](CC(C)C)NC(=O)[C@H](CC(C)C)NC(=O)[C@H](C)NC(=O)[C@H](Cc2c[nH]c3ccccc23)NC(=O)[C@H](Cc2ccc(O)cc2)NC(=O)[C@H](CCC(=O)O)NC1=O)[C@@H](C)O (stereo partly drawn) [YS-10, Ac-RRR-Ahx-^17TSFX8EYWALLS5ENY^30-NH2] (Ac-RRR[Ahx]TSF[X1]EYWALL[ξαMeNle(6-ylidene)]ENY-NH2; staple 8-15) | 1.69 µM | 17.9 µM |  |  |  |  |  |  |
| CC(=O)N[C@@H](CCCCN)C(=O)N[C@@H](CCCCN)C(=O)NCCCCCC(=O)N[C@H](C(=O)N[C@@H](CO)C(=O)N[C@@H](Cc1ccccc1)C(=O)N[C@]1(C)CCCCCCC=CCCC[C@@](C)(C(=O)N[C@@H](CCC(=O)O)C(=O)N[C@@H](CC(N)=O)C(=O)N[C@@H](Cc2ccccc2)C(N)=O)NC(=O)[C@H](CC(C)C)NC(=O)[C@H](CC(C)C)NC(=O)[C@H](C)NC(=O)[C@H](Cc2c[nH]c3ccccc23)NC(=O)[C@H](Cc2ccc(O)cc2)NC(=O)[C@H](CCC(=O)O)NC1=O)[C@@H](C)O [YS-07, Ac-KK-Ahx-^17TSFX8EYWALLS5ENF^30-NH2] (Ac-KK[Ahx]TSF[R8]EYWALL[S5]ENF-NH2; staple 7-14) | ~0.78 µM | 9.95 µM |  | efficiently induced β-galactosidase activity | most potent |  |  |  |
| CC(=O)N[C@H](C(=O)N[C@@H](CO)C(=O)N[C@@H](Cc1ccccc1)C(=O)NC1(C)CCCCCCC=CCCCC(C)(C(=O)N[C@@H](CCC(=O)O)C(=O)N[C@@H](CC(N)=O)C(=O)N[C@@H](Cc2ccc(O)cc2)C(N)=O)NC(=O)[C@H](CC(C)C)NC(=O)[C@H](CC(C)C)NC(=O)[C@H](C)NC(=O)[C@H](Cc2c[nH]c3ccccc23)NC(=O)[C@H](Cc2ccc(O)cc2)NC(=O)[C@H](CCC(=O)O)NC1=O)[C@@H](C)O (stereo partly drawn) [YS-04, Ac-^17TSFX8EYWALLS5ENY^30-NH2] | 9.73 µM | 78.3 µM |  |  | greater potency in the T22 assay than YS-01 and YS-02 |  | approximately 2 fold | significantly more helical in character in solution than YS-01 and YS-02 |
| CC(=O)N[C@H](C(=O)N[C@@H](CO)C(=O)N[C@@H](Cc1ccccc1)C(=O)N[C@]1(C)CCCC=CCCC[C@](C)(C(=O)N[C@@H](CC(C)C)C(=O)N[C@@H](CC(C)C)C(=O)N[C@@H](CO)C(=O)N[C@@H](CCC(=O)O)C(=O)N[C@@H](CC(N)=O)C(=O)N[C@@H](Cc2ccc(O)cc2)C(N)=O)NC(=O)[C@H](Cc2c[nH]c3ccccc23)NC(=O)[C@H](Cc2ccc(O)cc2)NC(=O)[C@H](CCC(=O)O)NC1=O)[C@@H](C)O [YS-06, Ac-^17TSFX5EYWX5LLSENY^30-NH2] (Ac-TSF[R5]EYW[R5]LLSENY-NH2; staple 4-8) |  |  |  |  | improvement of both peptides to activate p53 |  |  | significantly more helical structure |
